The record followed here is publication PMC8778187, “A New Oxygen Containing Pyclen-Type Ligand as a Manganese(II) Binder for MRI and ^52Mn PET Applications: Equilibrium, Kinetic, Relaxometric, Structural and Radiochemical Studies” (Molecules, 2022).

The structures appear in SMILES notation.

Series [1] in a line: Serum stability in Seronorm followed by r1p relaxation rates. In kind it is in vitro ADME, human. The method, then: Serum “stability” of the [Mn(3,9-OPC2A)] chelate: during MRI investigations, the CAs are injected into the vein of the patients and, following their injection, the complexes can meet with different proteins present in the blood serum, which are known to bind the essential metal ions in relatively strong manner. Therefore, the plasma proteins can potentially initiate transmetalation/transchelation reactions, especially in the case of Mn(II) complexes whose thermodynamic stability is lower than the stability of the chelates formed with essential metal ions, such as Zn(II) or Cu(II). What is more, for some Mn(II) complexes, depending upon the stability constants, of course, the Ca(II) ions present at high concentrations in the serum can initiate the dissociation of the complex, as in the case of [Mn(EGTA)]^2^−, [Mn(BAPTA)]^2^−, or [Mn(CaM)], for instance. In nuclear medicine, serum “stability” studies are routinely performed, in order to access the integrity of the chelates in the given competitive media.
The serum stability of the Mn(II) complexes was studied by following the r1p relaxation rates of the complex over time, using 1.0 mM solutions in SeronormTM (Seronorm = commercially available lyophilized human blood serum, Sero, Stasjonsveien, Norway) at pH = 7.43 and 25 °C.

The nature of series [2]: Stability and protonation constants of Mg(II) complexes by pH-potentiometry. In kind it is physicochemical. To be noted: Mg^2+ complex; T = 25 °C, I = 0.15 M NaCl. The procedure:
(§1) The stability and protonation constants of the metal complexes formed with H2OPC2A were determined by pH-potentiometric titrations, but, for the Cu(II) complex, UV-Vis spectrophotometric measurements were also carried out to supplement the pH-potentiometric titration data (Figures S21 and S22, Supporting Information).
(§2) Metal stock solutions were prepared from the highest analytical grade chemicals, and their concentrations were determined by complexometric titration with standardized Na2H2EDTA and eriochrome black T indicator in the presence of ascorbic acid, and potassium hydrogen tartrate for MnCl2, murexide indicator for CaCl2 and CuCl2, eriochrome black T for MgCl2 and xylenol orange in the presence of hexamethylenetetramine for the solution of ZnCl2. The concentration of the ligand stock solution was determined by pH-potentiometric titrations. The protonation constants of the ligand were determined by the pH potentiometric titrations with 0.15 M NaOH, using 0.0025 M ligand solutions. The ionic strength was set to 0.15 M by using NaCl. […]
To avoid the effect of CO2, N2 gas was bubbled through the solutions during the titrations process. […] For the calibration of the pH meter, KH-phtalate (pH = 4.005) and borax (pH = 9.177) buffers were used, and the H^+ ion concentrations were calculated from the measured pH values by applying the method proposed by Irving et al.. […]

Series [3] can be described thus: Stability and protonation constants of Cu(II) complexes by pH-potentiometry and UV-Vis spectrophotometry. In kind it is physicochemical. The note with it: Cu^2+ complex, T = 25 °C, I = 0.15 M NaCl. The procedure: as §1
as §2, with “NaCl. The titrated samples (starting volume of 6 mL) were stirred mechanically, and thermostated at 25 °C by a circulating water bath (±0.1 °C).” for “NaCl.”
To avoid the effect of CO2, N2 gas was bubbled through the solutions during the titrations process. […] For the calibration of the pH meter, KH-phtalate (pH = 4.005) and borax (pH = 9.177) buffers were used, and the H^+ ion concentrations were calculated from the measured pH values by applying the method proposed by Irving et al.. A solution of approximately 0.01 M HCl was titrated with a 0.15 M NaOH solution (0.15 or 1.00 M NaCl), and the differences between the measured and calculated pH values (for the points with pH < 2.4) were used to calculate the (H^+) from the pH values measured in the titration experiments. […] The stability constants of the metal complexes (except for Cu(II)) were determined using the direct pH-potentiometric method, by titrating samples with 1:1 metal-to-ligand ratios (the number of fitted data pairs were between 127–212), allowing 1 min for the sample equilibration to occur. […]

Take `O=C([O-])CN1CCOCCN(CC(=O)[O-])Cc2cccc(n2)C1.[Mn+2]` [[Mn(3,9-OPC2A)]]: the “time over which the relaxation rate remained constant in Seronorm” value in series [1] (1.0 mM complex, pH = 7.43, 25 °C, negligible dissociation) is reported as “at least 80 h”. Further, in series [1] (1.41 T, 25 °C), the “r1p in Seronorm solution” value worked out at 5.09 mM⁻¹ s⁻¹.

For the compound `O=C(O)CN1CCOCCN(CC(=O)O)Cc2cccc(n2)C1` [H23,9-OPC2A, 6-Oxa-3,9,15-triazabicyclo(9.3.1)pentadeca-1(15),11,13-triene-3,9-diacetic acid], the “log KMgL (stability constant of the Mg(II) complex)” value in series [2] is 7.02(1). The “log KMnLOH” value in series [3] is 10.50(5). For the same compound, in series [3] (footnote g), the “log KMnHL” value is listed as 1.92(4) ^g and the “log KMnL” value is listed as 18.41(4) ^g.
